Reference: publication PMC6259833, “Antioxidant Bibenzyl Derivatives from Notholaena nivea Desv” (Molecules, 2011)
Entries after “also recorded” stand apart in the source; their conditions may differ.

Tests used:
xanthine oxidase (XOD) = biological target: T1, xanthine oxidase (XOD) (Bos taurus, UniProt P80457); assay: Xanthine oxidase inhibition assay (uric acid formation); format: biochemical; conditions: for IC50: uric acid from xanthine, 295 nm, mean ± SD
T1 construct: purchased Sigma Aldrich (Gillingam, Dorset, U.K.)
T1 sequence (P80457 2-1332 limits assumed): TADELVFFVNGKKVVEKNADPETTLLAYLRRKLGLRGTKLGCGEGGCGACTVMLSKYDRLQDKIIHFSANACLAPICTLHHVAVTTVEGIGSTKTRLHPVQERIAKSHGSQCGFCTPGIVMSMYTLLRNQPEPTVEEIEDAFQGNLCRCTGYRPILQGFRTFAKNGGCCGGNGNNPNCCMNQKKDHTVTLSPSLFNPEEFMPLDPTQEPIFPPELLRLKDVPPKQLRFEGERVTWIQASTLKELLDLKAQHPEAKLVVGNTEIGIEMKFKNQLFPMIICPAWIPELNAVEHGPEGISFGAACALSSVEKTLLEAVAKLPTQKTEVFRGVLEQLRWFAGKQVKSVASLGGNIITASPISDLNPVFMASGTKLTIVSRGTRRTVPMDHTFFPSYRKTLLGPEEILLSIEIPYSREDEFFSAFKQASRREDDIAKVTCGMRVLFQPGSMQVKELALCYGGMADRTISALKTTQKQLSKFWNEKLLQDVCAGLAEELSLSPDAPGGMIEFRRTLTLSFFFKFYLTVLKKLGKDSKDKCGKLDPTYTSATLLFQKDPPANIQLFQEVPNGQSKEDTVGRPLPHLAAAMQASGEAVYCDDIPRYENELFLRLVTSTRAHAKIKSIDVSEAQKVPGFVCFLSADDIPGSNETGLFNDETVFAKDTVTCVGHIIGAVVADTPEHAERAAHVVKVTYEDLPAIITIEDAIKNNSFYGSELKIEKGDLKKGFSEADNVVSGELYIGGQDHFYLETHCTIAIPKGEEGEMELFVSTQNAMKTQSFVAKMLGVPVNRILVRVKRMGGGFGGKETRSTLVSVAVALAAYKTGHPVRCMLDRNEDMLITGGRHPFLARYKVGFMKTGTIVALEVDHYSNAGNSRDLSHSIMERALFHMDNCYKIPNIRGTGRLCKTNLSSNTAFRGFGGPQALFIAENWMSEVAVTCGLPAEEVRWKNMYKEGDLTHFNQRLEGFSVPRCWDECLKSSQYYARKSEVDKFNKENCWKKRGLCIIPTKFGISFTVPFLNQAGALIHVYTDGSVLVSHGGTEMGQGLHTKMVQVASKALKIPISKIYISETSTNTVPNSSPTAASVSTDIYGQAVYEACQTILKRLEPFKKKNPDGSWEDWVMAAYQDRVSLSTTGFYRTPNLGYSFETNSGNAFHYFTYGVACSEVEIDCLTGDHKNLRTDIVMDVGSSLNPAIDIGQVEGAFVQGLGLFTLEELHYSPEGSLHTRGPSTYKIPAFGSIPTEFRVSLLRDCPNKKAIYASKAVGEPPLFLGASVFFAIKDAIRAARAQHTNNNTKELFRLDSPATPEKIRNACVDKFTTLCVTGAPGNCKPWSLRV
Experimental: Xanthine oxidase inhibition activity was evaluated by the spectrophotometric measurement of the formation of uric acid by xanthine. A 100 µM solution of xanthine in 0.1 M phosphate buffer pH 7.8 with 0.04 units/mL of xanthine oxidase was incubated for 10 min at room temperature and read at 295 nm against a blank sample. Various concentrations of testing compounds were added to samples before the enzyme has been instilled and their effect on the generation of uric acid was used to calculate regression lines and IC50 values.

[1] = TEAC free radical scavenging assay (ABTS radical cation); conditions: for TEAC: Trolox concentration with inhibition equivalent to a 1 mM solution of the compound, ABTS+., 734 nm, mean ± SD, triplicate
Experimental: The TEAC value is based on the ability of the antioxidant to scavenge the ABTS^+.. ABTS^+. cation radical was produced by the reaction between ABTS (7 mM) in water and potassium persulfate (2.45 mM), kept in the dark at room temperature for 12 hours. ABTS^+. is a blue-green cromogen with a characteristic absorption at 734 nm. The ABTS^+. solution was diluted with PBS, pH 7.4, to an absorbance of 0.70 at 734 nm and equilibrated at 30 °C.
Samples were diluted with methanol to have 0.3 mM, 0.5 mM, 1 mM, 1.5 mM, 2 mM solutions. The reaction was enhanced by the addition of diluted ABTS (1 mL) to 10 µL of each solution of sample or Trolox (standard), or […] of methanol (blank). The determination was repeated three times for each sample solution. The percentage inhibition of absorbance at 734 nm was calculated for each concentration in function of the blank’s absorbance. The percentage inhibition was plotted as a function of compound or standard concentration. The antioxidant activities of compounds 1-6 are expressed as TEAC, Trolox equivalent antioxidant activity. TEAC value is defined as the concentration of standard Trolox solution with equivalent percentage inhibition to a 1 mM concentration solution of the compound after investigation.

[2] = Superoxide anion enzymatic generation assay (xanthine/xanthine oxidase, NBT reduction); format: biochemical; conditions: xanthine/XOD system, 560 nm, mean ± SD, read-out: Superoxide anion scavenging activity IC50
Experimental: Superoxide anion was generated in an enzymatic system by preparing a mixture of xanthine and xanthine oxidase. The reaction mixture included 0.1 mM EDTA, 50 µg/mL bovine serum albumine (BSA), 25 µM nitroblue tetrazolium, 0.1 mM xanthine and 3.3 × 10^−3 units xanthine oxidase (XOD) in 40 mM sodium carbonate buffer (pH 10.2) in a final volume of 3 mL. After incubation at 25 °C with increasing concentrations of samples, the absorbance of formazan produced was determined at 560 nm.
The inhibitory effect of samples on the generation of superoxide anion were estimated by the equation: Inhibitory ratio = (A0−A1) × 100/ A0; where A0 absorbance with no addition of sample and A1 absorbance with addition of sample. Inhibitory ratio for each sample was plotted as a function of the concentration, then was calculated the IC50 value, with the statistical method of linear regression.

[3] = Coupled oxidation of β-carotene and linoleic acid (linoleic acid autoxidation assay); conditions: 15 µg/mL; for antioxidant activity in β-carotene/linoleic acid model (in words): compared with BHT standard; for Linoleic acid autoxidation inhibition (AA), 1 h: t = 60 min; for Linoleic acid autoxidation inhibition (AA), 1 h / Linoleic acid autoxidation inhibition (AA), 2 h: β-carotene bleaching, 50 °C; for Linoleic acid autoxidation inhibition (AA), 2 h: t = 120 min
Experimental: Heat-induced oxidation of an aqueous emulsion system of β-carotene and linoleic acid was measured by the method described by Pratt (1992). A quantity of linoleic acid (20 mg) and Tween 20 (200 mg) were placed in a flask, and a solution of β-carotene (2 mg) in CHCl3 (10 mL) was added. After removal of CHCl3, oxygenated distilled water (50 mL) was added. Aliquots of each compound (200 µL), dissolved in ethanol to a 15 µg/mL solution, were added to each flask with shaking. Samples without test compounds were used as blanks and sample with 2,6 di-tert-butyl-4-methylphenol (BHT) was used as a control substance. Samples were subjected to the oxidation, by placing them in an oven at 50 °C for 3 hours. The absorbance was red at 470 nm at regular intervals to monitor the rate of bleaching of ß-carotene. The antioxidant activities was expressed as AA, calculated with the equation Inhibitory ratio (AA) = 100 [1−A0−At]/ A00−A0t; where A0 was the absorbance at the beginning of the incubation, with compound; At was the absorbance at the time t, with compound; A00 was the absorbance at beginning of the incubation, without compound; A0t the absorbance at the time t, without compound. Each experiment was performed in triplicate.

Caco-2 cells = assay: H2O2-induced cytotoxicity in differentiated Caco-2 cells, neutral red assay; format: cell-based, human; conditions: for viability at 250 µM: compound 250 μmol/L; for protection against H2O2-induced toxicity (in words): compound 250 µmol/L, pretreatment before 10 mmol/L H2O2
Experimental: The Caco-2 cells strain was obtained from Prof. A. Leone research group (Dipartimento di Scienze Farmaceutiche, Sezione Biologica, Università degli Studi di Salerno, Fisciano, Italy) and used between passages 75 to 90. The cells were routinely maintained in DMEM, containing 200 mL/L FCS, 10 mL/L of 100× nonessential aminoacids, 2 mmol/L L-glutamine, 5 × 10^4 IU/L penicillin, 50 mg/L streptomycin at 37 °C in a 5% CO2 atmosphere at 90-100% relative humidity. Cell were grown in 10-cm petri dishes. For experiments, cells were seeded at a density of 90,000 cells/cm^2 in a Transwell insert, and the medium (0.1 mL in the insert and 0.8 mL in the well) was changed every 48 h. Fourteen to sixteen days after confluence, the integrity of the monolayer of differentiated cells was monitored according to the method of Hildago et al..
An iron-free medium (EMEM) was used for the oxidative stress induction experiments. The oxidative stress was induced in the apical compartment of the transwell insert by addition of H2O2. After 20 h of incubation, several oxidative stress markers were measured. To assay the capacity of these compounds to protect Caco-2 cells from ROM-mediated oxidative injury, cells were preincubated for 4 h with compounds, which had been added to the apical side of monolayer. After the end of preincubation time, the medium was changed before the addition of the of the oxidative stress-inducing agents.
We assessed the cytotoxicity of ROM on Caco-2 by the viability test of neutral red uptake, performed according to the procedure of Fautz et al.. After oxidative stress induction the medium in the insert was removed and replaced with 0.1 mL of fresh medium containing […] neutral red. At the end of 3 h of incubation, the medium was removed and cells were washed twice with PBS; finally the incorporated neutral red was released from cells by incubation for 15 min at room temperature in the presence of 1 mL of cell lysis buffer containing acetic acid (1%, v/v) and ethanol (50% v/v). To measure the dye taken up, the cell lysis products were centrifuged and supernatants spectrophotometrically measured at 540 nm.

[4] = Homo sapiens, Caco-2, 4 h preincubation, then 10 mmol/L H2O2 for 20 h, neutral red, read-out: cell viability

Compound	activity as direct inhibitor of xanthine oxidase (in words) (xanthine oxidase (XOD))	IC50 (xanthine oxidase (XOD)) [µM]	TEAC [1] [mM]	IC50 [2] [µM]	antioxidant activity in β-carotene/linoleic acid model (in words) [3]	Linoleic acid autoxidation inhibition (AA), 1 h [3] [%]	Linoleic acid autoxidation inhibition (AA), 2 h [3] [%]	loss of cell viability (Caco-2 cells; 20 h of treatment with 10 mmol/L H2O2)	cell viability (Caco-2 cells; H2O2 10 mmol/L alone, 20 h, neutral red) [%]	viability at 250 µM (Caco-2 cells; [4]) [%]	viability at 500 µM (Caco-2 cells; Homo sapiens, Caco-2, compound 500 μmol/L, 4 h preincubation, then 10 mmol/L H2O2 for 20 h, neutral red, read-out: cell viability) [%]	protection against H2O2-induced toxicity (in words) (Caco-2 cells)	protection against H2O2-induced alterations (in words) (Caco-2 cells; compound 500 µmol/L preincubation)	radical scavenging activity in ABTS/TEAC test (in words) [1]	viability at 125 µM (Caco-2 cells; Homo sapiens, Caco-2, compound 125 μmol/L, 4 h preincubation, then 10 mmol/L H2O2 for 20 h, neutral red, read-out: cell viability) [%]
COc1ccc(CCc2cc(OC)cc(O)c2C(=O)O)cc1 [Compound 5, 5-hydroxy-3,12-dimethoxy-6-carboxybibenzyl]	moderate activity	64 ± 2.13	1.21 ± 0.01	58.4 ± 1.18	moderate activity	26.56	19.72	–	–	–	–	–	–	–	–
COc1cc(CCc2ccc(O)cc2)c(C(=O)O)c(OC(C)=O)c1 [Compound 2, 5-acetyloxy-12-hydroxy-3-methoxybibenzyl-6-carboxylic acid]	moderate activity	71.39 ± 0.45	1.38 ± 0.01	81.11 ± 0.68	moderate activity	28.51	19.16	–	–	–	–	–	–	–	–
Oc1ccc(CCc2cc(O)cc(O)c2)cc1 [Dihydroresveratrol, reference compound]	–	> 100	2.3 ± 0.07	60.9 ± 1.12	lower activity	16.11	20.12	–	–	–	–	–	–	–	–
COc1cc(CCc2ccc(Oc3cc(CCc4ccc(Oc5cc(CCc6ccc(O)cc6)c(C(=O)O)c(OC)c5)cc4)c(C(=O)O)c(OC)c3)cc2)c(C(=O)O)c(OC)c1 [Compound 4, 3-O-{12’-[12’’-O-(3’’,5’’-dimethoxy-6’’-carboxybibenzyl)]-5’-methoxy-6’-carboxybibenzyl}-12-hydroxy-5-methoxybibenzyl-6-carboxylic acid]	no activity	> 100	1.5 ± 0.03	81.3 ± 2.01	no activity	0	0	–	–	–	–	–	–	–	–
OO [Compound H2O2, hydrogen peroxide, reference compound]	–	–	–	–	–	–	–	about 25%	75	–	–	–	–	–	–
Cc1cc(C(C)(C)C)c(O)c(C(C)(C)C)c1 [BHT, 2,6 di-tert-butyl-4-methylphenol, reference compound]	–	–	–	–	–	60.00	51.07	–	–	–	–	–	–	–	–
COc1cc(CCc2ccc(O)cc2)cc(Oc2ccc(CCc3cc(OC)cc(O)c3C(=O)O)cc2)c1 [Compound 3, 12-O-[3’-(5’-methoxy-12’-hydroxy)-bibenzyl]-5-hydroxy-3-methoxybibenzyl-6-carboxylic acid]	no activity	> 100	1.22 ± 0.02	78.2 ± 1.15	no activity	0	0	–	–	–	–	–	–	–	–
COc1cc(O)c(C(=O)O)c(CCc2ccc(O)cc2)c1 [Compound 1, 5,12-dihydroxy-3-methoxy-dibenzyl-6-carboxylic acid]	no activity	> 100	1.98 ± 0.05	96.93 ± 0.42	highest activity after 1h; also recorded: moderate activity	32.60	11.70	–	–	80	88	inactive	prevented	most active	–
O=c1c(O)c(-c2ccc(O)c(O)c2)oc2cc(O)cc(O)c12 [Quercetin, quercetin, reference compound]	–	–	2.91 ± 0.02	–	–	–	–	–	–	–	–	–	–	–	–
COc1cc(O)cc(CCc2ccc(O)cc2)c1 [Compound 6, 3,12-dihydroxy-5-methoxybibenzyl]	no activity	> 100	2.55 ± 0.02	83.3 ± 1.06	moderate activity	29.35	7.31	–	–	98	–	no decrease in cell viability; also recorded: prevent H2O2-induced cytotoxicity; also recorded: prevented	–	most active compound	90
